Test results reported in patent publication US20180371272A1, “AQUEOUS INK, INK CARTRIDGE AND IMAGE RECORDING METHOD” (CANON KABUSHIKI KAISHA, priority 2017, published 2018).
Read-outs that look alike come from different tables or passages of the source. Values belong to the compound of their own block, whether it stands above or below them.

What was measured:
Type in all cases: physicochemical
[1] = Water solubility of solvent A at 20° C.; settings: for Water solubility (% by mass): 20° C.
Protocol: When a compound is a salt in the present invention, the salt exists while dissociating into ions in an ink, but this is expressed as “containing a salt” for convenience. An aqueous inkjet ink may be described as just an “ink.” The physical property values are values at 20° C. unless otherwise specified.
This solvent A is a so-called poorly water-soluble compound (poorly water-soluble solvent), which is poorly dissolved in water. […] When water in the ink evaporates and the concentration increases, the solvent A cannot be completely dissolved in the ink to separate from the ink. Because the tips of non-printing nozzles are exposed to the atmosphere, water in the ink volatilizes particularly easily.

[2] = Vapor pressure of solvent A at 20° C.
Protocol: (§1) The present invention will be described in detail hereinafter by mentioning preferable embodiments. When a compound is a salt in the present invention, the salt exists while dissociating into ions in an ink, but this is expressed as “containing a salt” for convenience. An aqueous inkjet ink may be described as just an “ink.” The physical property values are values at 20° C. unless otherwise specified.
(§2) The vapor pressure of the solvent A at 20° C. is 0.5 mmHg or less, and the surface tension at 20° C. is 30 mN/m or more. When the vapor pressure is more than 0.5 mmHg, oil films formed on ejection ports evaporate, and the effect of suppressing water evaporation becomes weak. When the surface tension is less than 30 mN/m, the intermolecular force is weak. Therefore, oil films cannot be formed. The vapor pressure of the solvent A at 20° C. can be 0.2 mmHg or less. The surface tension of the solvent A at 20° C. can be 36 mN/m or more. Specific examples of the solvent A are illustrated in Table 1.

[3] = Surface tension of solvent A at 20° C.
Protocol: as §1, §2

[4] = Log partition coefficient of solvent A

Structure (SMILES): OCCOc1ccccc1 [2-Phenoxyethanol]
Water solubility (% by mass) [1]: 2.67 % by mass
water solubility of the solvent A in the prepared ink ([1]; solvent A of ink 1): 2.7%
Vapor pressure (mmHg) [2]: 0 mmHg
Surface tension (mN/m) [3]: 40 mN/m
Log partition coefficient [4]: 1.16

Structure (SMILES): CC(O)Cc1ccccc1 (stereo not shown) [1-Phenyl-2-propanol]
Water solubility (% by mass) [1]: 0.58 % by mass
Vapor pressure (mmHg) ([2]; 20° C.): 0.1 mmHg
Surface tension (mN/m) [3]: 37.3 mN/m
Log partition coefficient [4]: 1.71

Structure (SMILES): CC(O)COc1ccccc1 (stereo not shown) [1-Phenoxy-2-propanol]
Water solubility (% by mass) [1]: 1.1 % by mass
Vapor pressure (mmHg) [2]: 0 mmHg
Surface tension (mN/m) [3]: 37.7 mN/m
Log partition coefficient [4]: 1.51

Structure (SMILES): OCCCc1ccccc1 [3-Phenyl-1-propanol]
Water solubility (% by mass) [1]: 0.568 % by mass
Vapor pressure (mmHg) [2]: 0 mmHg
Surface tension (mN/m) [3]: 38.9 mN/m
Log partition coefficient [4]: 1.88

The remaining lines, values ahead:

Water solubility (% by mass) [1]: 2.2 % by mass
Vapor pressure (mmHg) [2]: 0.1 mmHg
Surface tension (mN/m) [3]: 39.7 mN/m
Structure (SMILES): OCCc1ccccc1 [Phenethyl alcohol]

Water solubility (% by mass) [1]: 4.29 % by mass
Vapor pressure (mmHg) [2]: 0.1 mmHg
Surface tension (mN/m) [3]: 39 mN/m
Log partition coefficient [4]: 1.03
Structure (SMILES): OCc1ccccc1 [Benzyl alcohol]

Water solubility (% by mass) [1]: 0.1 % by mass
Vapor pressure (mmHg) [2]: 0 mmHg
Surface tension (mN/m) [3]: 38.3 mN/m
Log partition coefficient [4]: 2.4
Structure (SMILES): OCCCCc1ccccc1 [4-Phenyl-1-butanol]
